Experimental data reported in patent US20260130933A1, “PHARMACEUTICAL COMPOSITION FOR PREVENTION OR TREATMENT OF NEPHROPATHY AND/OR DIABETES MELLITUS, COMPRISING ENAVOGLIFLOZIN” (DAEWOONG PHARMACEUTICAL CO., LTD., priority 2022, published 2026).

Assay: Example 4: subgroup of patients with proteinuria (baseline UACR of 30 to 3500 g/kg) of Examples 1 to 3, percent change in UACR at week 24
Format: in vivo, human
Conditions: for UACR decrease at week 24 compared to baseline: proteinuria subgroup
Text: Among the patient groups that received the test drugs and the control drug of Examples 1 to 3, a group of patients with proteinuria (baseline UACR of 30 to 3500 g/kg) was additionally analyzed.
Among the patients in Example 1, a subgroup with baseline UACR of 30 to 3500 g/kg was classified as a group of patients with proteinuria.
Among the patients in Example 2, a subgroup with the baseline UACR of 30 to 3500 g/kg was classified as a group of patients with proteinuria.
Similarly, among the patients in Example 3, a subgroup with the baseline UACR of 30 to 3500 g/kg was classified as a group of patients with proteinuria.

[1] = week 24, Example 2 (with metformin), per-protocol set, UACR 30-3500 g/kg at baseline
[2] = week 24, Example 3 (with metformin and gemigliptin), per-protocol set, UACR 30-3500 g/kg baseline
[3] = week 24, Example 1 (monotherapy), full analysis set, UACR 30-3500 g/kg at baseline

Structure (SMILES)	Percent change from baseline in UACR, Mean [1]	Percent change from baseline in UACR, Median [1]	UACR, Mean [1]	UACR, Median [1]	Percent change from baseline in UACR, Mean [2]	Percent change from baseline in UACR, Median [2]	UACR, Mean [2]	UACR, Median [2]	UACR decrease at week 24 compared to baseline (dual combination therapy with metformin)	UACR decrease at week 24 compared to baseline (enavogliflozin administered alone)	UACR decrease at week 24 compared to baseline (triple combination therapy with metformin and gemigliptin)	UACR change, decrease compared to the dapagliflozin-administered patient group (two studies (Examples 2 and 3) combined)	Percent change from baseline in UACR, Difference (enavogliflozin 0.3 mg − Placebo) [3]	Percent change from baseline in UACR, Mean [3]	Percent change from baseline in UACR, Median [3]	UACR, Mean [3]	UACR, Median [3]	Percent change from baseline in UACR, Difference (enavogliflozin 0.3 mg − dapagliflozin 10 mg) [1]	Percent change from baseline in UACR, Difference (enavogliflozin 0.3 mg − dapagliflozin 10 mg) [2]
CCOc1ccc(Cc2cc([C@@H]3O[C@H](CO)[C@@H](O)[C@H](O)[C@H]3O)ccc2Cl)cc1 [Dapagliflozin, reference compound]	−26.01%	−39.48%	93.37 g/kg	45.70 g/kg	−13.09%	−39.84%	80.60 g/kg	43.10 g/kg	–	–	–	–	–	–	–	–	–	–	–
OC[C@H]1O[C@@H](c2cc(Cc3ccc(C4CC4)cc3)c(Cl)c3c2CCO3)[C@H](O)[C@@H](O)[C@@H]1O [Enavogliflozin, (2S,3R,4R,5S,6R)-2-(7-chloro-6 (4-cyclopropylbenzyl)-2,3-dihydrobenzofuran-4-yl)-6-(hydroxymethyl)tetrahydro-2H-pyran-3,4,5-triol]	−47.35%	−48.74%	45.64 g/kg	27.65 g/kg	−36.03%	−55.97%	75.40 g/kg	46.80 g/kg	47.35%	46.06%	36.03%	20.72%	−50.89%	−46.06%	−64.48%	70.29 g/kg	26.05 g/kg	−21.33%	−22.94%
